Test results: publication PMC10745659, “Chemical Constituents and α-Glucosidase Inhibitory, Antioxidant and Hepatoprotective Activities of Ampelopsis grossedentata” (Molecules, 2023)

Experiments:
[1] = DPPH free radical scavenging assay; details: mean ± SD, n = 4; ascorbic acid positive control
Protocol: The DPPH free radical scavenging capacity of isolated compounds was determined according to a modified method. […] All isolated compounds and positive drug were dissolved and diluted in DMSO and DPPH (2,2-Diphenyl-1-picrylhydrazyl) was dissolved in anhydrous ethanol. Briefly, 190 μL of a working solution of DPPH (0.2 mM) was added to each well. Then, 10 μL of a sample solution of different concentrations (1.6, 1.2, 0.8, 0.4, 0.2, and 0.1 mM) was added, mixed well, and left to incubate in the dark at room temperature for 60 min. After that, the absorbance values of each well were measured at 517 nm using a microplate reader and the results were obtained from a minimum of three independent experiments. Ascorbic acid was used as the positive control. DMSO was used to replace the sample solution as a blank and absolute ethanol was used to replace the DPPH solution as a control.
The percentage free radical scavenging rate (%) of each test sample for DPPH was calculated as:Free radical scavenging rate (%) = [Ablank − (Asample − Acontral)] ÷ Ablank × 100%

[2] = ABTS radical cation scavenging assay; details: mean ± SD, n = 4; ascorbic acid positive control
Protocol: The ABTS free radical scavenging capacity of all isolated compounds was measured, the procedure followed a method with minor modifications. […] Equal volumes of ABTS (2,2′-azinobis(3-ethylbenzthiazoline-6-sulphonic acid)) solution (7 mM) and potassium persulfate solution (2.45 mM) were mixed evenly and left to react at room temperature for 12 h in the dark to obtain ABTS radical cation. The mixture was then diluted with anhydrous methanol to achieve an absorbance value of about 0.7 ± 0.02 units at 405 nm. Then, 190 μL of ABTS working solution was added to each well, followed by 10 μL samples of varying concentrations (0.8, 0.4, 0.2, 0.1, 0.05, 0.025, 0.0125, and 0.00625 mM) that were dissolved and diluted with DMSO. After mixing well, the samples were incubated at room temperature for 6 min away from light. The subsequent experimental method is basically consistent with the DPPH assay, the only difference is that ABTS assay detects the absorbance value at 405 nm.
The percentage radical cation scavenging rate (%) of each test sample for ABTS was calculated as follows:Radical cation scavenging rate (%) = [Ablank − (Asample − Acontral)] ÷ Ablank × 100%
The IC50 values were calculated by using GraphPad Prism 9.0 software.

[3] = FRAP assay (total antioxidant capacity); details: for FRAP Assay: Fe2+ concentration equivalent, sample solution 0.68 mM, mean ± SD, n = 4
Protocol: The total antioxidant capacity of the samples was measured by the FRAP (ferric reducing ability of plasma) assay, with slight modifications. The acetate buffer (0.3 M, pH 3.6), TPTZ (2,4,6-tris(2-pyridyl)-S-triazine) solution (10 mM) in 40 mM HCl and ferric chloride aqueous solution (10 mM) were uniformly mixed at a volume ratio of 7:1:1 to obtain the FRAP working solution. FRAP working solution was preheated for 10 min in a constant temperature incubator at 37 °C before use. […] Then, 180 μL of FRAP working solution was added to each well, followed by 6 μL of sample solution (0.68 mM), and finally 18 μL of distilled water. Then, the mixture was stirred well and left to react at room temperature for 10 min. The absorbance values of each well were measured at 593 nm using a microplate reader and the results were obtained from at least three independent experiments. The sample solution was replaced with DMSO as a blank solution and ascorbic acid was used as a positive control. Different concentrations of FeSO4·7H2O (0.075–0.00078 μmol/mL) were used to establish the standard curve. The antioxidant capacity of the sample was expressed as the Fe^2+ concentration (μmol/mL) required to achieve the same absorbance change value. The final result was calculated by GraphPad Prism 9.0 software and presented as mean ± standard deviation (SD) of μmol Fe^2+ per milliliter.

[4] = molecular target: α-glucosidase (Saccharomyces cerevisiae, UniProt P53341); experiment: α-glucosidase inhibitory assay (p-NPG substrate); format: biochemical
α-glucosidase, sequence (P53341 whole entry): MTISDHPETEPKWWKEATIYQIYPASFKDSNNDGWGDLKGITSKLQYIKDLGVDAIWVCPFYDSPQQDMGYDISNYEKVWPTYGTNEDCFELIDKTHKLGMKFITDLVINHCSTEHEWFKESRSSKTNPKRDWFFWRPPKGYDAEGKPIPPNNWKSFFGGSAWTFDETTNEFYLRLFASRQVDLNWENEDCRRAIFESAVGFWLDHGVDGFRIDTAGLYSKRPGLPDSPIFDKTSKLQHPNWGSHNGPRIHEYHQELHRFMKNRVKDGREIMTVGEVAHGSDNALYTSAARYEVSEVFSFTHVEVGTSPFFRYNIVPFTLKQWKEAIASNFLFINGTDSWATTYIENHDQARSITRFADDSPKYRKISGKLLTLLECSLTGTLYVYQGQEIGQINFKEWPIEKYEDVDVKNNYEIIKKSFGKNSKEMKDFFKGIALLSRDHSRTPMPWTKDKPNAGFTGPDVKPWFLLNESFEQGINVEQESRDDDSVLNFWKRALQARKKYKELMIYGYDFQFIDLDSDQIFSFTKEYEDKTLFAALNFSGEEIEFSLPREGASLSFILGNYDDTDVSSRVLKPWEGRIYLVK
Protocol: The α-glucosidase inhibitory activities of isolated compounds were evaluated by using a method previously described, but with minor modifications [34]. […] Briefly, 98 μL of PBS (0.1 M, pH 6.8) was added to each well. Then, 2 μL of different concentrations of sample solutions and 25 μL of α-glucosidase solution (0.25 U/mL) were added. After shaking and mixing slightly, the 96-well plate was placed in a 37 °C constant-temperature incubator and incubated for 20 min. Next, 25 μL of p-NPG (4 mM) was added to the plate to initiate the reaction, and it was further incubated in a 37 °C constant-temperature incubator for 15 min. Then, 50 μL of Na2CO3 (0.2 M) solution was quickly added to each well to terminate the reaction. The absorbance was measured at 405 nm using a microplate reader, and the results were obtained from a minimum of three independent experiments.

[5] = test system: HepG2 cells; experiment: Hepatoprotective activity, APAP-induced HepG2 cell injury model (CCK-8); format: cell-based; details: for hepatoprotective activity (in words): 20 μM, APAP-induced HepG2 cell injury; for viability at 20 µM: Homo sapiens, 20 μM compound, APAP 6 mM, 48 h, HepG2, APAP model 68.24 ± 1.34%, n = 3, mean ± SD
Protocol: All these parameters were higher than in the preparation of cell viability positive control of 83.01 ± 0.82%.
HepG2 cells were maintained in DMEM medium supplemented with 10% fetal bovine serum, 100 U/mL penicillin G, and 100 μg/mL streptomycin. The cells were seeded in culture flasks and placed in a 5% CO2 incubator at 37 °C for routine cultivation. The hepatoprotective activities of the isolated samples were tested according to the modified method. To evaluate the effect of test samples on cell viability, a CCK-8 assay was performed. The experiment was conducted in 96-well plates, and 100 μL of HepG2 cells in logarithmic growth phase (8 × 10^5 cells/mL) were seeded in each well and cultured for 24 h. After that, samples (final concentration of 20 μM) and acetaminophen (APAP, final concentration of 6 mM) were added at one time to incubate for another 48 h. Then, 10 μL CCK-8 was added to each well and incubated for 1 h, followed by measuring the absorbance at a wavelength of 450 nm using a microplate reader.

IC50 [1] | IC50 [2] | IC50 ([4]; mean ± SD, n = 4, acarbose positive control) | Compound | FRAP Assay [3] | α-glucosidase inhibition (in words) [4] | hepatoprotective activity (in words) [5] | viability at 20 µM [5] | FRAP value [3]
> 80 µM | > 20 µM |  | O=c1c(O)coc2cc(O)cc(O)c12 [Compound 11, 3,5,7-Trihydroxychromone] | 0.15 ± 0.00 µmol/mL |  |  |  | 
43.1 ± 0.94 µM | 10.2 ± 0.13 µM |  | O=C1CC(c2cc(O)c(O)c(O)c2)Oc2cc(O)cc(O)c21 (stereo not shown) [Compound 17, 5,7,3′,4′,5′-Pentahydroxy flavanone] | 1.18 ± 0.01 µmol/mL |  |  |  | 
> 80 µM | > 20 µM |  | O=C(O)c1c(O)cccc1CCc1ccc(O)cc1 [Compound 8, lunularic acid] | 0.13 ± 0.01 µmol/mL |  |  |  | 
28.3 ± 0.38 µM | 5.91 ± 0.11 µM |  | O=C1c2c(O)cc(O)cc2O[C@H](c2cc(O)c(O)c(O)c2)[C@H]1O [Compound 3, (2R,3R)-Dihydromyricetin] | 1.71 ± 0.01 µmol/mL |  | moderate hepatoprotective activities |  | 
77.9 ± 0.87 µM | 19 ± 0.31 µM |  | O=C1O[C@H]([C@@H](O)CO)C(O)=C1O [ascorbic acid, reference compound] | 0.57 ± 0.01 µmol/mL |  |  |  | 
39.21 ± 0.18 µM | 7.36 ± 0.08 µM |  | O=C1c2c(O)cc(O)cc2OC(c2ccc(O)c(O)c2)C1O (stereo not shown) [Compound 12, Taxifolin] | 1.32 ± 0.01 µmol/mL |  |  | 85.4 ± 1.22% | 
> 80 µM | > 20 µM |  | CC(C)CC(=O)c1c(O)cc(O)cc1O[C@@H]1O[C@H](CO)[C@@H](O)[C@H](O)[C@H]1O [Compound 16, 2-O-[1-(3-Methylbutyryl)phloroglucin-ol]-β-D-glucopyranoside] | 0.24 ± 0.01 µmol/mL |  |  |  | 
25.5 ± 0.63 µM | 2.76 ± 0.04 µM |  | O=c1c(O)c(-c2ccc(O)c(O)c2)oc2cc(O)cc(O)c12 [Compound 4, Quercetin] | 2.67 ± 0.01 µmol/mL |  |  | 84.9 ± 1.21% | 
32.52 ± 0.16 µM | 4.43 ± 0.02 µM |  | O=C(O[C@H]1C(=O)c2c(cc(O)c(O)c2O)O[C@@H]1c1cc(O)c(O)c(O)c1)c1cc(O)c(O)c(O)c1 [Compound 1, Meichasu A] | 1.70 ± 0.00 µmol/mL |  |  | 84.93 ± 0.58% | 
 |  |  | COC(=O)c1cc(OC)c2c(c1-c1c(CO)cc(OC)c3c1OCO3)OCO2 [bicyclol, reference compound] |  |  |  | 83.01 ± 0.82% | 
> 80 µM | > 20 µM |  | O=C(CCc1ccc(O)cc1)c1c(O)cc(O)cc1O[C@@H]1O[C@H](CO)[C@@H](O)[C@H](O)[C@H]1O [Compound 15, Phloridzin] | 0.17 ± 0.01 µmol/mL | minimally or not |  |  | 
17.3 ± 0.31 µM | 2.19 ± 0.01 µM |  | O=C(O[C@H]1C(=O)c2c(O)cc(O)cc2O[C@@H]1c1cc(O)c(O)c(O)c1)c1cc(O)c(O)c(O)c1 [Compound 19, (2R,3R)-3,4-Dihydro-5,7-dihydroxy-4-oxo-2-(3,4,5-trihydroxyphenyl)-2H-1-benzopyran-3-yl 3,4,5-trihydroxybenzoate] | 2.79 ± 0.01 µmol/mL |  |  |  | 2.79 µmol/mL
44.4 ± 0.63 µM | 6.73 ± 0.03 µM |  | C[C@@H]1O[C@@H](Oc2c(-c3ccc(O)c(O)c3)oc3c(O)c(O)c(O)c(O)c3c2=O)[C@H](O)[C@H](O)[C@H]1O [Compound 2, Meichasu B] | 1.96 ± 0.01 µmol/mL |  |  | 88.46 ± 0.63% | 
> 80 µM | > 20 µM |  | O=C1C[C@@H](c2ccc(O)cc2)Oc2cc(O)cc(O)c21 [Compound 6, Naringenin] | 0.07 ± 0.00 µmol/mL |  |  | 83.7 ± 0.67% | 
> 80 µM | 19.9 ± 0.46 µM |  | O=c1c(O)c(-c2ccc(O)cc2)oc2cc(O)cc(O)c12 [Compound 7, Kaempferol] | 0.85 ± 0.01 µmol/mL |  |  | 87.08 ± 0.6% | 
43.5 ± 0.36 µM | 5.01 ± 0.11 µM |  | O=C1c2c(O)cc(O)cc2O[C@@H](c2cc(O)c(O)c(O)c2)[C@@H]1O [Compound 10, (2S,3S)-Dihydromyricetin] | 1.43 ± 0.01 µmol/mL |  |  |  | 
> 80 µM | > 20 µM | 9.42 ± 0.51 µM | lunularin [Compound 9] | 0.09 ± 0.00 µmol/mL |  |  |  | 
> 80 µM | > 20 µM |  | C[C@@H]1O[C@@H](Oc2c(-c3ccc(O)cc3)oc3cc(O)cc(O)c3c2=O)[C@H](O)[C@H](O)[C@H]1O [Compound 14, Afzelin] | 0.07 ± 0.00 µmol/mL |  | essentially inactive |  | 
29.8 ± 0.59 µM | 3.39 ± 0.07 µM |  | O=c1c(O)c(-c2cc(O)c(O)c(O)c2)oc2cc(O)cc(O)c12 [Compound 5, Myricetin] | 1.72 ± 0.01 µmol/mL |  | moderate hepatoprotective activities |  | 

Compound | IC50 [1] | IC50 [2] | IC50 ([4]; mean ± SD, n = 4, acarbose positive control) | FRAP Assay [3] | α-glucosidase inhibition (in words) [4] | hepatoprotective activity (in words) [5] | viability at 20 µM [5] | FRAP value [3]
Myricitrin [Compound 13] | 35.03 ± 0.28 µM | 6.88 ± 0.13 µM |  | 1.69 ± 0.02 µmol/mL | minimally or not |  |  | 
C[C@@H]1O[C@@H](Oc2c(-c3ccc(O)c(O)c3)oc3cc(O)cc(O)c3c2=O)[C@H](O)[C@H](O)[C@H]1O [Compound 18, Quercitrin] | 63.5 ± 0.97 µM | 9.96 ± 0.16 µM |  | 1.35 ± 0.02 µmol/mL | minimally or not | essentially inactive |  | 
